Source: patent publication US6225494A, “Trisubstituted phenyl derivatives having retinoid agonist or inverse agonist type biological activity” (Allergan Sales, Inc., priority 1999, dated 2001)

Key:
Test in all cases: Ligand binding assay
RARγ = biological target: T1, RARγ (Homo sapiens, UniProt P13631)
T1 sequence (P13631 1-454): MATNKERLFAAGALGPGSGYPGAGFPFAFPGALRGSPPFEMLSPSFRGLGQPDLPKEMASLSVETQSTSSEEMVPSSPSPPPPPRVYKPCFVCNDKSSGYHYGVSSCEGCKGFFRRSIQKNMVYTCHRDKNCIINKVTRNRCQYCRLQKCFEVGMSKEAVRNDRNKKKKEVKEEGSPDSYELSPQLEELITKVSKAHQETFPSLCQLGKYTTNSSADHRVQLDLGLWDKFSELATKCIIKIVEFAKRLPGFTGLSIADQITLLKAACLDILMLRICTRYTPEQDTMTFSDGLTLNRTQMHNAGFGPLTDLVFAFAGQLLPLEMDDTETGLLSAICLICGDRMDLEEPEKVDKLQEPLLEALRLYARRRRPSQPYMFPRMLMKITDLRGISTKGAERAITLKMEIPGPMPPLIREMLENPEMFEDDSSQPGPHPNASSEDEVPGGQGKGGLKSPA
Excerpt: (§1) Other assays described below, measure the ability of the compounds of the present invention to bind to, and/or activate various retinoid receptor subtypes. When in these assays a compound binds to a given receptor subtype and activates the transcription of a reporter gene through that subtype, then the compound is considered an agonist of that receptor subtype. […] In the below described assays the ability of the compounds to bind to RARα, RARβ, RARγ, RXRα, RXRβ and RXR.tau. receptors, and the ability or inability of the compounds to activate transcription of a reporter gene through these receptor subtypes can be tested.
(§2) A holoreceptor transactivation assay and a ligand binding assay which measure the antagonist/agonist like activity of the compounds of the invention, or their ability to bind to the several retinoid receptor subtypes, respectively, are described in published PCT Application No. WO WO93/11755 (particularly on pages 30-33 and 37-41) published on Jun. 24, 1993, the specification of which is also incorporated herein by reference. A detailed experimental procedure for holoreceptor transactivations has been described by Heyman et aL Cell 68, 397-406, (1992); Allegretto et aL J. Biol. Chem. 268, 26625-26633, and Mangelsdorf et aL The Retinoids: Biology, Chemistry and Medicine, pp 319-349, Raven Press Ltd., New York, which are expressly incorporated herein by reference. The results obtained in this assay are expressed in EC50 numbers, as they are also in the chimeric receptor transactivation assay. The results of ligand binding assay are expressed in Kd numbers. (See Cheng et aL Biochemical Pharmacology Vol. 22 pp 3099-3108, expressly incorporated herein by reference.)

RARβ = biological target: T2, RARβ (Homo sapiens, UniProt P10826); settings: read-out: Kd RABβ
T2 sequence (P10826 1-448 isoform P10826-2): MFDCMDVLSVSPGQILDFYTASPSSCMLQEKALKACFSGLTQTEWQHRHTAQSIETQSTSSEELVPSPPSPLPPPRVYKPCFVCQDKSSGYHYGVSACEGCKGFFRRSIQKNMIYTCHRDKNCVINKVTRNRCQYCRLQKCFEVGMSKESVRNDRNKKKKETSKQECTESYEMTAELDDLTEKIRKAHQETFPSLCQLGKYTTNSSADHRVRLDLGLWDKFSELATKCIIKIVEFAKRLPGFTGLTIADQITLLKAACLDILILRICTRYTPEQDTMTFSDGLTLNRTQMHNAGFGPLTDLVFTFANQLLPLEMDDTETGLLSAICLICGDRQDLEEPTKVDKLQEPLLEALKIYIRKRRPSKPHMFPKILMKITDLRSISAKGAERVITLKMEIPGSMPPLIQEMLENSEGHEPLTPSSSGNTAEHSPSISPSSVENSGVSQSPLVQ
Excerpt: as §1, §2

RARα = biological target: T3, RARα (Homo sapiens, UniProt P10276)
T3 sequence (P10276 1-462): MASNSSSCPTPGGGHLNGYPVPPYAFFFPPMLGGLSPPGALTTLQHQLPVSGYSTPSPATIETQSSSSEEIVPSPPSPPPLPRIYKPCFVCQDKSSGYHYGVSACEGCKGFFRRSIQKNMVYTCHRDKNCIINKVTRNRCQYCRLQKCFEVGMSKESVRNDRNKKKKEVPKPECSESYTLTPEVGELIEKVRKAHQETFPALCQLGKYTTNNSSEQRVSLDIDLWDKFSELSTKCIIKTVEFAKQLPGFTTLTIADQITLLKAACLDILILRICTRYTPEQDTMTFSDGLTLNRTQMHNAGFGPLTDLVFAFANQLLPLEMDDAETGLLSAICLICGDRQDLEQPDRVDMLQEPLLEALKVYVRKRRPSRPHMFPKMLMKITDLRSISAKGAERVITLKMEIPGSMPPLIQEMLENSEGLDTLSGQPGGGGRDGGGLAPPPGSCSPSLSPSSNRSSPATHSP
Excerpt: as §1, §2

| Structure (SMILES) | Kd (RARγ) | Kd (RARβ) | Kd (RARα) |
| --- | --- | --- | --- |
| Cc1ccc(C(=O)c2cc(C#Cc3ccc(C(=O)O)cc3)ccc2O)cc1 [Compound 5, 4-[[4'-hydroxy-3'-(4"-methyl)benzoyl]phenylethynyl]benzoic acid] | 897 nM | 98 nM | 339 nM |
| C=C(c1ccc(C)cc1)c1cc(C#Cc2ccc(C(=O)O)cc2)ccc1O [Compound 8, 4-[[4'-Hydroxy-3'-(1-p-tolyl)vinyl]phenylethynyl]benzoic acid] | 5220 nM | 1320 nM | 8200 nM |
| C=C(c1ccc(C)cc1)c1cc(C#Cc2ccc(C(=O)O)cc2)ccc1OCOC [Compound 9, 4-[[4'-methoxymethoxy-3'-(1-p-tolyl)vinyl]phenylethynyl]benzoic acid] | 730 nM | 152 nM | 942 nM |
| C=C(c1ccc(C)cc1)c1cc(C#Cc2ccc(C(=O)O)cc2)ccc1OC [Compound 12, 4-[[4'-Methoxy-3'-(1-p-tolyl)vinyl]phenylethynyl]benzoic acid] | 394 nM | 193 nM | 1450 nM |
| COCOc1ccc(C#Cc2ccc(C(=O)O)cc2)cc1C(=O)c1ccc(C)cc1 [Compound 13] | 902 nM | 487 nM | 1190 nM |
| C=C(c1ccc(C)cc1)c1cccc(C#Cc2ccc(C(=O)O)cc2)c1 [Compound 20, 4-[[3'-(1-p-Tolyl)vinyl]phenylethynyl]benzoic acid] | > 1000 nM | 224 nM | > 1000 nM |
| COc1ccc(C#Cc2ccc(C(=O)O)cc2)cc1C(=O)c1ccc(C)cc1 [Compound 22, 4-[[4'-methoxy-3'-(4"-methyl)benzoyl]phenylethynyl]benzoic acid] | 1500 nM | 763 nM | 1600 nM |
| Cc1ccc(C(=O)c2cc(C#Cc3ccc(C(=O)O)c(F)c3)c(C)cc2O)cc1 [Compound 25, 4-[[4'-Hydroxy-2'-methyl-5'-(4"-methyl)benzoyl]phenylethynyl]-2-fluoro-benzoic acid] | 1960 nM | 217 nM | 1150 nM |
| C=C(c1ccc(C)cc1)c1cc(C#Cc2ccc(C(=O)O)cc2)ccc1OC(C)C [Compound 28, 4-[[4'-Isopropoxy-3'-(1-p-tolyl)vinyl]phenylethynyl]benzoic acid] | 949 nM | 538 nM | 2090 nM |
| C=C(c1ccc(C)cc1)c1cc(C#Cc2ccc(C(=O)O)c(F)c2)ccc1OC(C)C [Compound 29, 4-[[4'-Isopropoxy-3'-(1-p-tolyl)vinyl]phenylethynyl]-2-fluoro-benzoic acid] | 817 nM | 233 nM | 1160 nM |
| C=C(c1cccc(C)c1)c1cc(C#Cc2ccc(C(=O)O)cc2)ccc1OC(C)C [Compound 31, 4-[[4'-Isopropoxy-3'-(1-m-tolyl)vinyl]phenylethynyl]benzoic acid] | 366 nM | 488 nM | 3290 nM |
